Counter-ions that a name gives are not always drawn.

We go through one compound from patent publication US20250134906A1 (Woolsey Pharmaceuticals, Inc., priority 2022, published 2025).

Series [1] is described as follows: Solubility and stability of unbuffered aqueous fasudil solutions stored at 60° C. for 42 days. The series is classed as physicochemical. The settings on record: 16-20 mg/ml. Here is the method: Samples were stored at 60° C. for 42 days.
The nature of series [2]: Stability of aqueous fasudil in 0.05M citrate buffer with or without EDTA, 60° C. for 36 days. The series is classed as physicochemical. On the procedure: Samples were stored at 60° C. for 36 days.

For the compound `O=S(=O)(c1cccc2cnccc12)N1CCCNCC1` [Fasudil, hexahydro-1-(5-isoquinolinesulfonyl)-1H-1,4-diazepine monohydrochloride hemihydrate], in series [1], the “changes in fasudil concentration or pH” value is listed as “stable in the range of pH 4 to pH 6”. Further, the “changes in pH or fasudil concentration” value in series [2] was “compatible with EDTA in citrate buffer”.
